Test results as given in patent US7772252B2, “Heterocyclic substituted carbonyl derivatives and their use as dopamine D3 receptor ligands” (Aventis Pharmaceuticals Inc., priority 2001, dated 2010).

These compounds were tested against T1, cloned human dopamine D3 receptors (Homo sapiens, UniProt P35462) (assay: [N-Methyl-3H]Spiroperidol binding to cloned human dopamine D3 receptors). Conditions: D3 Ki.
T1 construct: expressed in transfected cells; membrane homogenate
T1 sequence (P35462 whole entry): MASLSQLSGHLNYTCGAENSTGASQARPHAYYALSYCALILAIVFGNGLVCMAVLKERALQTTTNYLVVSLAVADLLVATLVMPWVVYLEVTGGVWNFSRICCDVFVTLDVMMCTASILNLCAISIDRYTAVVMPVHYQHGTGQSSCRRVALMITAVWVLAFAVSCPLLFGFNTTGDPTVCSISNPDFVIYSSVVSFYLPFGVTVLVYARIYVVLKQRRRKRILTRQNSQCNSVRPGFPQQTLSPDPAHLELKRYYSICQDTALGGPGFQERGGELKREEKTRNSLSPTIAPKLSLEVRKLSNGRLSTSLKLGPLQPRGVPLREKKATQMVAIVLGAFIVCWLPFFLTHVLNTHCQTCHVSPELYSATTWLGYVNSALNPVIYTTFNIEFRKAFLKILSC
How it was run: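 Radioligand displacement with [N-methyl-3H]spiroperidol was run on membranes from a high-expressing CHO clone carrying human D3. Membranes were prepared in 10% DMSO and stored at −80° C.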
For `O=C([C@@H]1C[C@H]1CN1CCN(c2csc3cc(C(F)(F)F)ccc23)CC1)N1CCC(Nc2ccc(Cl)cc2)CC1` [compound 832495], the Ki was 63.6 nM.

Same assay, conditions: read-out: D3 Ki
Work on `O=C([C@@H]1C[C@H]1CN1CCC(c2noc3ccsc23)CC1)N1CCc2ccccc2C1` [compound 831199] yielded a Ki of 2.78 nM. With `O=C(NCCC1=CCCCC1)[C@@H]1C[C@H]1CN1CCC(c2noc3ccsc23)CC1` [compound 831215] the Ki was 5.92 nM. `CC[C@H]1CC[C@H](NC(=O)[C@@H]2C[C@H]2CN2CCN(c3nn(-c4ccc(C(F)(F)F)cc4)c4ccccc34)CC2)CC1` [compound 831226] gave a Ki of 26.7 nM. Work on `Cc1ccc(S(=O)(=O)n2nc(N3CCN(C[C@@H]4C[C@H]4C(=O)NCCCn4ccnc4)CC3)c3sccc32)cc1` [compound 831267] yielded a Ki of 28.3 nM. For `O=C(NCCCn1ccnc1)[C@@H]1C[C@H]1CN1CCN(c2csc3cc(C(F)(F)F)ccc23)CC1` [compound 831269], the Ki was 4.08 nM. `O=C(NCCCc1ccccc1)[C@@H]1C[C@H]1CN1CCN(c2csc3cc(C(F)(F)F)ccc23)CC1` [compound 831270] gave a Ki of 17.8 nM. Compound `O=C(NCCc1c[nH]c2ccccc12)[C@@H]1C[C@H]1CN1CCN(c2csc3cc(C(F)(F)F)ccc23)CC1` [compound 831271] has a Ki of 6.57 nM. `O=C(NCCCN1CCCC1)[C@@H]1C[C@H]1CN1CCC(c2noc3ccsc23)CC1` [compound 831272] gave a Ki of 6.22 nM. Work on `O=C(NCCc1ccccn1)[C@@H]1C[C@H]1CN1CCC(c2noc3ccsc23)CC1` [compound 831274] yielded a Ki of 17.4 nM. `Cc1ccc2[nH]cc(CCNC(=O)[C@@H]3C[C@H]3CN3CCC(c4noc5ccsc45)CC3)c2c1` [compound 831277] gave a Ki of 5.38 nM. Compound `CN(CCc1c[nH]c2ccccc12)C(=O)[C@@H]1C[C@H]1CN1CCC(c2noc3ccsc23)CC1` [compound 831278] has a Ki of 18.1 nM. `COc1c(F)ccc2c(C3CCN(C[C@@H]4C[C@H]4C(=O)NCCCn4ccnc4)CC3)noc12` [compound 831309] was tested, and the Ki was 40.6 nM. Work on `COc1c(F)ccc2c(C3CCN(C[C@@H]4C[C@H]4C(=O)NCCCc4ccccc4)CC3)noc12` [compound 831310] yielded a Ki of 103 nM. `O=C(NCCCc1ccccc1)[C@@H]1C[C@H]1CN1CCC(c2nn(-c3ccc(C(F)(F)F)cc3)c3ccccc23)CC1` [compound 831312] showed a Ki of 214 nM. Work on `COc1ccc2c(c1)c(N1CCN(C[C@@H]3C[C@H]3C(=O)NCCCn3ccnc3)CC1)nn2-c1ccc(C(F)(F)F)cc1` [compound 831313] yielded a Ki of 134 nM. In the case of `COc1ccc2c(c1)c(N1CCN(C[C@@H]3C[C@H]3C(=O)NCCCc3ccccc3)CC1)nn2-c1ccc(C(F)(F)F)cc1` [compound 831314], the Ki is reported as 133 nM. Work on `O=C(NCCCn1ccnc1)[C@@H]1C[C@H]1CN1CCN(c2n[nH]c3ccsc23)CC1` [compound 831315] yielded a Ki of 29.3 nM. In the case of `O=C(NCCOc1ccccc1)[C@@H]1C[C@H]1CN1CCC(c2noc3ccsc23)CC1` [compound 831343], the Ki is reported as 13.7 nM. In the case of `COc1ccc(CCNC(=O)[C@@H]2C[C@H]2CN2CCC(c3noc4ccsc34)CC2)cc1` [compound 831344], the Ki is reported as 22.1 nM. With `O=C([C@@H]1C[C@H]1CN1CCC(c2noc3ccsc23)CC1)N1CCC(c2noc3ccsc23)CC1` [compound 831345] the Ki was 34.4 nM. `COc1c(F)ccc2c(C3CCN(C[C@H]4C[C@@H]4C(=O)N[C@H]4CC[C@H](C)CC4)CC3)noc12` [compound 831360] was tested, and the Ki was 17.1 nM. With `COc1c(F)ccc2c(C3CCN(C[C@@H]4C[C@H]4C(=O)N[C@H]4CC[C@H](C)CC4)CC3)noc12` [compound 831361, 2R-[4-(6-Fluoro-7-methoxy-benzo[d]isoxazol-3-yl)-piperidin-1-ylmethyl]-1R-cyclopranecarboxylic acid (trans-4-methyl-cyclohexyl)-amide] the Ki was 1.75 nM. `O=C(NCCCn1cccc1)[C@@H]1C[C@H]1CN1CCC(c2noc3ccsc23)CC1` [compound 831376] showed a Ki of 40.3 nM. In the case of `O=C(NCCCn1cnc2ccccc21)[C@@H]1C[C@H]1CN1CCC(c2noc3ccsc23)CC1` [compound 831377], the Ki is reported as 4.68 nM. For `O=C(NCCCn1ccnc1-c1ccccc1)[C@@H]1C[C@H]1CN1CCC(c2noc3ccsc23)CC1` [compound 831378], the Ki was 35.6 nM. With `Cc1ncc([N+](=O)[O-])n1CCNC(=O)[C@@H]1C[C@H]1CN1CCC(c2noc3ccsc23)CC1` [compound 831379] the Ki was 46.7 nM. With `O=C(NCCCn1ccnc1)[C@@H]1C[C@H]1CN1CCC(c2cc3ccccc3s2)CC1` [compound 831488] the Ki was 0.725 nM. For `O=C(NCCCN1CCCCC1)[C@@H]1C[C@H]1CN1CCN(c2csc3cc(C(F)(F)F)ccc23)CC1` [compound 831491], the Ki was 0.187 nM. Work on `O=C(NCCCN1CCOCC1)[C@@H]1C[C@H]1CN1CCN(c2csc3cc(C(F)(F)F)ccc23)CC1` [compound 831492] yielded a Ki of 0.432 nM. In the case of `COc1ccc2c(c1)c(N1CCN(C[C@@H]3C[C@H]3C(=O)N[C@H]3CC[C@H](C)CC3)CC1)nn2C` [compound 831768], the Ki is reported as 0.904 nM. In the case of `COc1ccc2c(c1)c(N1CCN(C[C@@H]3C[C@H]3C(=O)NCCCn3ccnc3)CC1)nn2C` [compound 831808], the Ki is reported as 3.84 nM. In the case of `COc1cccc2c(C3CCN(C[C@@H]4C[C@H]4C(=O)N[C@H]4CC[C@H](C)CC4)CC3)noc12` [compound 831809], the Ki is reported as 0.0284 nM. With `COc1cccc2c(C3CCN(C[C@@H]4C[C@H]4C(=O)N4CCC(C(=O)c5ccc(F)cc5)CC4)CC3)noc12` [compound 831810] the Ki was 124 nM. Compound `Cn1nc(N2CCN(C[C@@H]3C[C@H]3C(=O)NCCCn3ccnc3)CC2)c2sccc21` [compound 831830] has a Ki of 0.76 nM. `COc1cccc2c(C3CCN(C[C@@H]4C[C@H]4C(=O)NCCCn4ccnc4)CC3)noc12` [compound 831880] was tested, and the Ki was 100 nM. With `O=C([C@@H]1C[C@H]1CN1CCN(c2csc3cc(C(F)(F)F)ccc23)CC1)N1CCN(Cc2ccc(Cl)c(Cl)c2)CC1` [compound 831881] the Ki was 109 nM. With `O=C(c1ccc(Cl)cc1)C1CCN(C(=O)[C@@H]2C[C@H]2CN2CCN(c3csc4cc(C(F)(F)F)ccc34)CC2)CC1` [compound 831882] the Ki was 57.3 nM. With `O=C([C@@H]1C[C@H]1CN1CCN(c2csc3cc(C(F)(F)F)ccc23)CC1)N1CCN(Cc2ccccc2)CC1` [compound 831883] the Ki was 48.1 nM. `O=C(NCCN1CCCCC1)[C@@H]1C[C@H]1CN1CCN(c2csc3cc(C(F)(F)F)ccc23)CC1` [compound 831885] was tested, and the Ki was 35.3 nM. In the case of `O=C(NCCN1CCCC1)[C@@H]1C[C@H]1CN1CCN(c2csc3cc(C(F)(F)F)ccc23)CC1` [compound 831886], the Ki is reported as 16.8 nM. Compound `O=C(NCCCN1CCCC1)[C@@H]1C[C@H]1CN1CCN(c2csc3cc(C(F)(F)F)ccc23)CC1` [compound 831887] has a Ki of 6.5 nM. Work on `CN(C)CCCNC(=O)[C@@H]1C[C@H]1CN1CCN(c2csc3cc(C(F)(F)F)ccc23)CC1` [compound 831888] yielded a Ki of 17.5 nM. `Cc1cn(CCCNC(=O)[C@@H]2C[C@H]2CN2CCC(c3noc4ccsc34)CC2)cn1` [compound 831937] showed a Ki of 35 nM. `Cc1cn(CCCNC(=O)[C@@H]2C[C@H]2CN2CCC(c3noc4ccsc34)CC2)c(C)n1` [compound 831938] showed a Ki of 33 nM. `O=C(N[C@H]1CC[C@H](O)CC1)[C@@H]1C[C@H]1CN1CCC(c2cc3ccccc3s2)CC1` [compound 831950] was tested, and the Ki was 5.48 nM. Compound `Cc1ccc(S(=O)(=O)n2nc(N3CCN(C[C@@H]4C[C@H]4C(=O)N[C@H]4CC[C@H](O)CC4)CC3)c3sccc32)cc1` [compound 831951] has a Ki of 36.7 nM. Compound `COc1c(F)ccc2c(C3CCN(C[C@@H]4C[C@H]4C(=O)N[C@H]4CC[C@H](O)CC4)CC3)noc12` [compound 831952] has a Ki of 42.8 nM. `O=C(N[C@H]1CC[C@H](O)CC1)[C@@H]1C[C@H]1CN1CCC(c2nn(-c3ccc(C(F)(F)F)cc3)c3ccccc23)CC1` [compound 831953] gave a Ki of 37.4 nM. `O=C([C@@H]1C[C@H]1CN1CCC(c2noc3ccsc23)CC1)N1CCC(Cn2ccnc2)CC1` [compound 831957] showed a Ki of 63.2 nM. With `O=C([C@@H]1C[C@H]1CN1CCN(c2csc3cc(C(F)(F)F)ccc23)CC1)N1CCC(Cn2ccnc2)CC1` [compound 831958] the Ki was 13 nM. With `COc1cccc2c(C3CCN(C[C@@H]4C[C@H]4C(=O)NCCCc4ccccc4)CC3)noc12` [compound 832102] the Ki was 81.5 nM. `COc1cccc2c(C3CCN(C[C@@H]4C[C@H]4C(=O)NCCCc4cccnc4)CC3)noc12` [compound 832104] gave a Ki of 620 nM. For `COc1cccc2c(C3CCN(C[C@@H]4C[C@H]4C(=O)NCCCN4CCCCC4)CC3)noc12` [compound 832108], the Ki was 178 nM. `O=C(NCCCn1ccnc1)C1(CCN2CCC(c3noc4ccsc34)CC2)CC1` [compound 832171] showed a Ki of 4.9 nM. With `O=C(NCCc1ccccc1)C1(CCN2CCC(c3noc4ccsc34)CC2)CC1` [compound 832180] the Ki was 91 nM. In the case of `Cn1nc(N2CCN(C[C@@H]3C[C@H]3C(=O)N3CCC(n4ccnc4)CC3)CC2)c2sccc21` [compound 832207], the Ki is reported as 54.8 nM. Compound `O=C(CCCN1CCN(c2noc3ccsc23)CC1)N1CCC(n2ccnc2)CC1` [compound 832212] has a Ki of 302 nM. For `CN1CCC[C@@H]1CCNC(=O)[C@@H]1C[C@H]1CN1CCN(c2csc3cc(C(F)(F)F)ccc23)CC1` [compound 832216], the Ki was 76.5 nM. For `O=C(N1CCCC1)C1(CCN2CCC(c3noc4ccsc34)CC2)CC1` [compound 832239], the Ki was 207 nM. `O=C(NCCCN1CCOCC1)C1(CCN2CCC(c3noc4ccsc34)CC2)CC1` [compound 832240] showed a Ki of 186 nM. Compound `O=C(N[C@H]1CC[C@H](O)CC1)[C@@H]1C[C@H]1CN1CCC(c2noc3c(C(F)(F)F)cccc23)CC1` [compound 832271] has a Ki of 112 nM. For `O=C(NCCCN1CCCCC1)[C@@H]1C[C@H]1CN1CCC(c2noc3c(C(F)(F)F)cccc23)CC1` [compound 832272], the Ki was 145 nM. Compound `O=C(NCCCn1ccnc1)[C@@H]1C[C@H]1CN1CCC(c2noc3c(C(F)(F)F)cccc23)CC1` [compound 832274] has a Ki of 52.4 nM. Work on `O=C(N[C@H]1CC[C@H](O)CC1)C1(CCN2CCC(c3noc4ccsc34)CC2)CC1` [compound 832317] yielded a Ki of 943 nM. `O=C(NCCCc1cc[nH]c1)[C@@H]1C[C@H]1CN1CCN(c2csc3cc(C(F)(F)F)ccc23)CC1` [compound 832494] gave a Ki of 25 nM. In the case of `N=C(N)N1CCC(CNC(=O)[C@@H]2C[C@H]2CN2CCN(c3csc4cc(C(F)(F)F)ccc34)CC2)CC1` [compound 832496], the Ki is reported as 3.66 nM.
